This note sets out measurements from article PMC2757673, “Protein Misfolding as an Underlying Molecular Defect in Mucopolysaccharidosis III Type C” (PLoS ONE, 2009).

Structures are written as SMILES. pKi: −log10 of the molar value. Where a name gives a salt, the structure may show the parent alone.

In assay [1] the target is T1, HGSNAT (heparan sulfate acetyl-CoA: α-glucosaminide N-acetyltransferase), HGSNAT-TAP (Homo sapiens, UniProt Q68CP4).
T1 construct: transient expression in COS-7 cells; homogenate or streptavidin-resin partially purified; ~77 kDa
T1 sequence (Q68CP4 1-663): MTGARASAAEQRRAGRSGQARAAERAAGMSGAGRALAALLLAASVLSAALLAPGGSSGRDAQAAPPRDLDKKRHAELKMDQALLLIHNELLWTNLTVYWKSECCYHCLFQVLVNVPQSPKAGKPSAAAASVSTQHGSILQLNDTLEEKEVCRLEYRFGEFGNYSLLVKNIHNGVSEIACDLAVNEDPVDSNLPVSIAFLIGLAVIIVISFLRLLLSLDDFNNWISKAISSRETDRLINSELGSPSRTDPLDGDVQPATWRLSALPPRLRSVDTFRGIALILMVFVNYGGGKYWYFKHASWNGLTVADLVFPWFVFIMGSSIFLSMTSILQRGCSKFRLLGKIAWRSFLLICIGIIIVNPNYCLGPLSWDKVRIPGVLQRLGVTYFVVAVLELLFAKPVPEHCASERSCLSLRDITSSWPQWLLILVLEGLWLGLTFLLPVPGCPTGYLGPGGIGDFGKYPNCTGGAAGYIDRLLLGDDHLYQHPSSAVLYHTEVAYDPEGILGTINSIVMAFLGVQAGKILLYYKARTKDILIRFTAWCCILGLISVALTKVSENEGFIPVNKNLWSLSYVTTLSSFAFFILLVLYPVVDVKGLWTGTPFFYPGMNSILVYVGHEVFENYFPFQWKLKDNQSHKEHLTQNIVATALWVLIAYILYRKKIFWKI
Nature of the assay: fluorogenic N-acetyltransferase assay, Lineweaver-Burk plot, partially purified (streptavidin resin) enzyme. The class given is biochemical. To be noted: acetyl-CoA co-substrate, 4MU-βGlcN 0.05-2.0 mM, McIlvain buffer pH 5.7, 37°C, 18 h.

Assay [2] concerns the target T1, HGSNAT (heparan sulfate acetyl-CoA: α-glucosaminide N-acetyltransferase), HGSNAT-TAP. Nature of the assay: fluorogenic N-acetyltransferase assay, Dixon plot, homogenate of transfected COS-7 cells. It counts as biochemical. Conditions: competitive; 4MU-βGlcN 0.0375-1.5 mM, 2 mM acetyl-CoA, McIlvain buffer pH 5.7, 37°C, 3 h.

Turning to `Cc1cc(=O)oc2cc(O[C@@H]3O[C@H](CO)[C@@H](O)[C@H](O)[C@H]3N)ccc12` [4MU-βGlcN, 4-methylumbelliferyl β-D-glucosaminide], in assay [1], the KM result is “Lineweaver-Burk plot of substrate dependance for partially purified HGSNAT wild-type and P237Q and V481L mutants”.

What is called pKi is −log10 of the Ki, conventionally taken in molar units. Low readings indicate a high Ki, high ones a low Ki. `N[C@H]1C(O)O[C@H](CO)[C@@H](O)[C@@H]1O` (stereo partly drawn) [D-(+)-glucosamine hydrochloride]: the pKi in assay [2] is 3.55.
